Assay results as given in patent publication US20230087844A1, “USE OF N2-QUINCLINE OR ISOQUINOLINE SUBSTITUTED PURINE DERIVATIVES IN CANCER TREATMENT” (SHANGHAI HUAYU BIOTECHNOLOGY CO., LTD., priority 2020, published 2023).
Marks after values point to notes of the source that are not given here.

Legend:
AKT = test: Inhibition of AKT phosphorylation; type: biochemical
From the text: (§1) FLT3 is a class III receptor tyrosine kinase and plays an important role in hematopoiesis and lymphocyte development. […] Wang et al found over 60% of 82 leukemia cell lines were FLT3 positive (Wang Y et al., (2006) Journal of Experimental Hematology 14(3): 446-449). FLT3-internal tandem duplication (ITD) is the most commonly seen mutation in AML patients, with about 17-34% of AML patients carrying such a mutation (Jia H et al., (2018) Medical Laboratory Science and Clinics 19(5): 39). […] Thus, the compounds of the disclosure with high inhibitory effect on FLT3 function may be good candidates for leukemia treatment.

MV-4-11 = test: MTT tumor cell proliferation, MV-4-11; type: cell-based; settings: Homo sapiens, MV4-11; MV-4-11, Acute myeloid leukemia, 72 hour
Experimental: (§2) as an exemplary compound of formula (I), was tested for its inhibitory effect on tumor cell proliferation in a MTT assay.
(§3) Briefly, cells at the log phase were collected, suspended in the cell culture medium at 4*10^4/ml density, and plated in 96-well plates, 90 μl per well. The plates were kept in a 5% CO2 and 37° C. incubator for 2 hours, and then added with 100 μg/ml, 10 μg/ml, 1 μg/ml, 0.1 μg/ml, 0.01 μg/ml or 0.001 μg/ml Compound A, 4 replicates for each cell at each compound concentration. DMSO was used in the positive control group, and another negative group was also set. After 72 hour incubation in the same incubator, 20 μl 5 mg/ml MTT reagent was added to each well. After another 4 hour incubation, each well was added with 100 μl SDS and further incubated for 12 hours. Absorbance at 570 nm was read in a reader, and IC50 was calculated.

SK-BR-3 = test: MTT tumor cell proliferation, SK-BR-3; type: cell-based; settings: Homo sapiens; SK-BR-3, Breast cancer, 72 hour
Experimental: as §2, §3

Reh = test: MTT tumor cell proliferation, Reh; type: cell-based; settings: Homo sapiens, Acute lymphocytic leukemia, 72 hour
Experimental: as §2, §3

SNU-5 = test: MTT tumor cell proliferation, SNU-5; type: cell-based; settings: Homo sapiens; SNU-5, Gastric cancer, 72 hour
Experimental: as §2, §3

THP-1 = test: MTT tumor cell proliferation, THP-1; type: cell-based; settings: Homo sapiens; THP-1, Acute monocytic leukemia, 72 hour
Experimental: as §2, §3

KDR (VEGFR-2) = KDR (VEGFR-2) (Homo sapiens, UniProt P35968); test: Inhibition of KDR phosphorylation; type: biochemical
From the text: as §1

H446 = test: Tumor cell death by MTT, H446; type: cell-based, human; settings: 20 nM
Experimental: The in vitro inhibitory effect of Compound A alone or in combination with a PARP inhibitor on tumor cell growth was tested using human small cell lung cancer (SCLC) cell lines, including H69 (ATCC® HTB-119™), H526 (ATCC® CRL-5811™) and H446 (TCHu196, National Collection of Authenticated Cell Cultures).
Briefly, the cells were seeded into a 96-well dish with RPMI-1640 (10-040-CV, Coming cellgro) containing 10% fetal bovine serum (10270-106, GIBCO), 1% penicillin and 1% streptomycin (BaSalMedia, S110JV), at an initial density of 3×10^3 cells per well ([…]), and cultured at a 37° C., 5% CO2 humidified incubator for 24 hours. Then, the culture media were added with Compound A (final concentration at 20 nM), olaparib (APEXBIO, A4154, a PARP inhibitor, final concentration at 10 μM), Compound A + olaparib (final concentrations at20 nM and 10 μM), or PBS (vehicle), respectively, and the cells were cultured for 48 hours. Then, cell viability was determined by MTT. The test was done in triplicate.
Cell death rate was calculated by the following formula.
Cell death rate=[1−(ODtest-ODvehicle)]×100%
Cell death rates were analyzed using student's t-test, and group differences were deemed statistically significant when the p-value was lower than 0.05. Zheng-Jun Jin's Q value was calculated using the formula Q=EA+B/(EA+EB-EA×EB) to assess the combined effect of Compound A and the PARP inhibitor, wherein EA+B, EA, and EB referred to the cell death rates caused by the combined treatment, Compound A treatment and PARP inhibitor treatment, respectively. A Q value higher than 1.15 meant a synergistic […] effect.
Another PARP inhibitor, rucaparib (APEXBIO, A4156), was tested alone or with Compound A for inhibitory effect on tumor cell growth, following the protocol of Example 9.

[1] = tested on: Ls-174t human colon cancer cells; test: Ls-174t colon cancer xenograft in mice; type: in vivo, BALB/cA-nude mice; settings: for T/C: D14
From the text: Mice were sacrificed on Day-14.

HL-60 = test: MTT tumor cell proliferation, HL-60; type: cell-based; settings: Homo sapiens; HL-60, Acute promyelocytic leukemia, 72 hour
Experimental: as §2, §3

BT-474 = test: MTT tumor cell proliferation, BT-474; type: cell-based; settings: Homo sapiens; BT-474, Breast cancer, 72 hour
Experimental: as §2, §3

solid cancer cell lines = test: MTT tumor cell proliferation, solid cancer cell lines (summary); type: cell-based; settings: summary of Table 2
Experimental: as §2, §3

[2] = tested on: A549 human non-small cell lung cancer cells; test: A549 non-small cell lung cancer xenograft in mice; settings: D0, 3, 6, 9; for T/C: D18
Experimental: Mice body weights and tumor sizes were measured 2 to 3 times a week. The tumor volume (V) was calculated as (length× width^2)/2. T/C (%) was calculated as (T-T0)/(C-C0)×100, wherein T and C represented the tumor volumes in the administration group and the vehicle group respectively at the end of the experiment, while T0 and C0 represented the tumor volumes in the administration group and the vehicle group respectively at the beginning of the experiment. And RTV was calculated as (Tumor volume at Day N/Tumor volume at Day 0). Mice were sacrificed on Day-14.
BALB/cA-nude mice, 5-6 weeks old, purchased from Shanghai SLAC Laboratory Animal Co., Ltd, were subcutaneously inoculated with A549 human non-small cell lung cancer cells (from ATCC).
Mice body weights and tumor sizes were measured 2 to 3 times a week. The tumor volume, T/C and RTV were calculated as described above. Mice were sacrificed on Day 18.

PI3K δ isoform = PI3K δ isoform (Homo sapiens, UniProt O00329); test: biochemical
Sequence of PI3K δ isoform (O00329 whole entry, canonical isoform): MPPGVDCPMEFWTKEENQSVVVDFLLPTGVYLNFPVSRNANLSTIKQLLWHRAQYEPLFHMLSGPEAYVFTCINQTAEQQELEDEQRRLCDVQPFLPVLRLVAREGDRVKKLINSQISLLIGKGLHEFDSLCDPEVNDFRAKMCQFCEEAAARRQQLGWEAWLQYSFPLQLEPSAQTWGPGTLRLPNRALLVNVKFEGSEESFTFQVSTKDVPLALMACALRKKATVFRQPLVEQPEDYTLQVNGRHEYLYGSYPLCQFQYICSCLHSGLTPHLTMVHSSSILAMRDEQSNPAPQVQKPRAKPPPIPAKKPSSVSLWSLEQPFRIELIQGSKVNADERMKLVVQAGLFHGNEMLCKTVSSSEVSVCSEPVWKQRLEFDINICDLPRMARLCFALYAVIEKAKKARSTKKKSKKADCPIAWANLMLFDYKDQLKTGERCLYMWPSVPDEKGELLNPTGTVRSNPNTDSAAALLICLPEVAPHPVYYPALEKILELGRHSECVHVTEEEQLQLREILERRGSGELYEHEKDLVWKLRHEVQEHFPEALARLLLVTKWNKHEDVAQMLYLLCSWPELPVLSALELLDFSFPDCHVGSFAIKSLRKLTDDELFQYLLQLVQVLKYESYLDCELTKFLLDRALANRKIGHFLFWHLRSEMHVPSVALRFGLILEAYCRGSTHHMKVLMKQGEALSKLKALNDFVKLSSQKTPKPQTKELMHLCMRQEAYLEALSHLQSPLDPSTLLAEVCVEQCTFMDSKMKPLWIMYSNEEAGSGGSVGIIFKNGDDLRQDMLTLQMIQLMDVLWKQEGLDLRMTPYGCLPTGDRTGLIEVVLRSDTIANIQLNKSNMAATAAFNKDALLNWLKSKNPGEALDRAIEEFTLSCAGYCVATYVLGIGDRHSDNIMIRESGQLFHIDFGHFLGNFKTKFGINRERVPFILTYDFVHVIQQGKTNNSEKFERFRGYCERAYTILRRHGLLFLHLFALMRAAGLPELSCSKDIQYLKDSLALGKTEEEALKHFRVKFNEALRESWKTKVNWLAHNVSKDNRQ
Sequence of PI3K δ isoform (P27986 whole entry partner, canonical isoform): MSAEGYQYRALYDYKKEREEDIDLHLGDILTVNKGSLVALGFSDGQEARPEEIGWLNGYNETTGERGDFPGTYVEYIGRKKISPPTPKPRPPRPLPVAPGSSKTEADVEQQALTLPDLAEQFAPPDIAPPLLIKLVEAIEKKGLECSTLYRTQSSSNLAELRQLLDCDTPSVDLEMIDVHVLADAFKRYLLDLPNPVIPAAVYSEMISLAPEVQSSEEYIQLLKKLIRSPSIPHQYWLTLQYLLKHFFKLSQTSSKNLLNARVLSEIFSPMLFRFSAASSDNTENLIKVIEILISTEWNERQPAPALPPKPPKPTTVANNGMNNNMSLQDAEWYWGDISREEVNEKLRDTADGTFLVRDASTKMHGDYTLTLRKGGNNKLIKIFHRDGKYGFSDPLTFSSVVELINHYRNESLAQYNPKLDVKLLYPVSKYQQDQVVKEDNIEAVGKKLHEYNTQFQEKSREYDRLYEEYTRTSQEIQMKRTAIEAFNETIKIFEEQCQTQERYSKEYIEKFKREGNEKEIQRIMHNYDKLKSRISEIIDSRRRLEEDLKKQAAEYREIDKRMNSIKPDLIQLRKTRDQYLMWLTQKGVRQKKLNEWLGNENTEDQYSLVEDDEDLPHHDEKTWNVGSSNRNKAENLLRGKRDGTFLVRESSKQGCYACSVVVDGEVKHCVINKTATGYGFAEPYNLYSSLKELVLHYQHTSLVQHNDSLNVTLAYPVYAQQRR

Sequence of KDR (VEGFR-2) (P35968 20-1356, species assumed): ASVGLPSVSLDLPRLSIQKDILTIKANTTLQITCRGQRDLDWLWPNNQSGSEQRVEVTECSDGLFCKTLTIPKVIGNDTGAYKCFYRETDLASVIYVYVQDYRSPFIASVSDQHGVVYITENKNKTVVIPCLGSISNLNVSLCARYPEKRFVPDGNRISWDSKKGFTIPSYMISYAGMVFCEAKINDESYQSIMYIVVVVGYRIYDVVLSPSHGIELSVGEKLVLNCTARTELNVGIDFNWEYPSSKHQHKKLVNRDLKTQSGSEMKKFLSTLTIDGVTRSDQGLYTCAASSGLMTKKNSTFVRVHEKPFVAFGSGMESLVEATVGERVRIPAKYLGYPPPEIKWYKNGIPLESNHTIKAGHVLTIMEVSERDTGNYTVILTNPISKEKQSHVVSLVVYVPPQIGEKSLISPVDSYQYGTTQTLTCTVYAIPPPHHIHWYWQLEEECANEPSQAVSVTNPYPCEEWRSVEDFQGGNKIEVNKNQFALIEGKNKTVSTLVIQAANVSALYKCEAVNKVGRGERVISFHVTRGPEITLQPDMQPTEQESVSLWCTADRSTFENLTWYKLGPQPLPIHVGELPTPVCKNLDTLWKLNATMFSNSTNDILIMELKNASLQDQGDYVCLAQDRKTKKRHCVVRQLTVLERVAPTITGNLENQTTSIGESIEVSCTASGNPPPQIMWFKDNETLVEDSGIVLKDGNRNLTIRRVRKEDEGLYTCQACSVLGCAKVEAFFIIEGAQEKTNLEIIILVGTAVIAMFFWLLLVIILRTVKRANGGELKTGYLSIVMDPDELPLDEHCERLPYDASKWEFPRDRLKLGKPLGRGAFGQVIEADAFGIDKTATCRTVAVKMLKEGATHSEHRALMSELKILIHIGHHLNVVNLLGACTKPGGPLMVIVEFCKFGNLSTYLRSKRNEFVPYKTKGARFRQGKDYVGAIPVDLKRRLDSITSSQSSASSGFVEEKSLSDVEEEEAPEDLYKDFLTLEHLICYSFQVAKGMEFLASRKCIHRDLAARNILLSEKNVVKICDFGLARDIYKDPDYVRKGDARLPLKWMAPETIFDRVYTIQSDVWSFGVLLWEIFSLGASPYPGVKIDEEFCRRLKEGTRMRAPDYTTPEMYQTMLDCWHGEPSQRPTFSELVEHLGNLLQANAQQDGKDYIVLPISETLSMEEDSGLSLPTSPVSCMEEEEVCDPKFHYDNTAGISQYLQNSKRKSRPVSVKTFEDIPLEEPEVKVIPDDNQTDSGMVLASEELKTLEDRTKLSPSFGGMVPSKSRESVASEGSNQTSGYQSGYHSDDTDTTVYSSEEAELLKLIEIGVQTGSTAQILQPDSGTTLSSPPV

## c1cnc2ccc(Nc3nc(NC4CC4)c4nc[nH]c4n3)cc2c1 [Compound A]
AKT
  EC50: ~100 nM
MV-4-11
  IC50: 300 ± 100 nM
SK-BR-3
  IC50: 16.5 ± 0.9 µM
Reh
  IC50: 800 ± 100 nM
SNU-5
  IC50: 12.1 ± 2 µM
THP-1
  IC50: 1600 ± 1600 nM
KDR (VEGFR-2)
  EC50: ~1000 nM
H446; 48 hours, Table 10
  Cell Death Rate/% 1: 13.5%
  Cell Death Rate/% 2: 13.18%
  Cell Death Rate/% 3: 13.67%
  Cell Death Rate/% mean: 13.45%
H446; Example 10, Table 11
  Cell Death Rate/% 1: 15%
  Cell Death Rate/% 2: 14.62%
  Cell Death Rate/% 3: 15.17%
  Cell Death Rate/% mean: 14.93%
[1]; 25 mg/kg P.O., D0, 2, 4, 8, 10
  Body weight (without tumor) D0: 23.7 g
  Body weight (without tumor) D14: 17.7 g
  RTV at D14: 13.91 ± 2.39
  Tumor volume D0: 145 ± 19 mm^3
  Tumor volume D14: 1997 ± 316 mm^3
  T/C: 66%
[1]; 50 mg/kg P.O., D0, 3, 6, 9
  Body weight (without tumor) D0: 23.4 g
  Body weight (without tumor) D14: 16.2 g
  RTV at D14: 8.21 ± 3.55
  Tumor volume D0: 147 ± 22 mm^3
  Tumor volume D14: 1176 ± 450 mm^3
  T/C: 38.9* %
[1]; 50 mg/kg P.O., D0, 4, 8
  Body weight (without tumor) D0: 23.3 g
  Body weight (without tumor) D14: 16.9 g
  RTV at D14: 10.25 ± 2.39
  Tumor volume D0: 149 ± 29 mm^3
  Tumor volume D14: 1497 ± 282 mm^3
  T/C: 48.6* %
HL-60
  IC50: 500 ± 300 nM
BT-474
  IC50: 4.4 ± 0.4 µM
Solid cancer cell lines
  IC50: ≥ 2300 nM
[2]; 15 mg/kg P.O.
  RTV at D18: 18.67 ± 12.89
  Tumor volume D0: 118 ± 21 mm^3
  Tumor volume D18: 2135 ± 1279 mm^3
  T/C: 70.8%
[2]; 30 mg/kg P.O.
  RTV at D18: 12.58 ± 4.38
  Tumor volume D0: 113 ± 19 mm^3
  Tumor volume D18: 1449 ± 608 mm^3
  T/C: 47.7* %
[2]; 60 mg/kg P.O.
  RTV at D18: 9.15 ± 5.33
  Tumor volume D0: 110 ± 11 mm^3
  Tumor volume D18: 1039 ± 669 mm^3
  T/C: 34.7* %
PI3K δ isoform
  EC50: ~90 nM
